Source: patent US20190292603A1, “METHOD FOR PREDICTING THE RESPONSIVENESS OF A PATIENT TO A TREATMENT WITH mTOR INHIBITORS” (INSTITUT NATIONAL DE LA SANTE ET DE LA RECHERCHE MEDICALE, priority 2018, published 2019)

System: Eμ-Myc-GAPDHlow lymphoma
Assay: Survival of OxPhos Eμ-Myc-GAPDHlow-bearing mice treated with Temsirolimus in vivo
Details: data not shown

`CO[C@H]1C[C@@H]2CC[C@@H](C)[C@@](O)(O2)C(=O)C(=O)N2CCCC[C@H]2C(=O)O[C@H]([C@H](C)C[C@@H]2CC[C@@H](OC(=O)C(C)(CO)CO)[C@H](OC)C2)CC(=O)[C@H](C)/C=C(\C)[C@@H](O)[C@@H](OC)C(=O)[C@H](C)C[C@H](C)/C=C/C=C/C=C/1C` [Temsirolimus] was tested, and the survival was “significantly increases”.
